According to ChEMBL document CHEMBL1201862, “PubChem BioAssay data set” (2004):
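Values below derive from 48-hour exposures of cells grown in 96-well plates, with endpoints linearly interpolated between the two concentrations bracketing the appropriate inhibition level. GI50: concentration for 50% inhibition of growth.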 Calls of active or inactive are those of the source. No stated cut-off is given here; in the data, active = GI50 up to about 1.1 µM and inactive = higher.

Tests used:
Assay in all cases: DTP human tumour cell line panel, 48 h
SF-539 = tested on: SF-539
MDA-MB-231 = tested on: MDA-MB-231
ACHN = tested on: ACHN
CAKI-1 = tested on: CAKI-1
TK-10 = tested on: TK-10
UO-31 = tested on: UO-31
Malme-3M = tested on: Malme-3M
OVCAR-5 = tested on: OVCAR-5
A549 = tested on: A549
OVCAR-8 = tested on: OVCAR-8
COLO 205 = tested on: COLO 205
SK-MEL-28 = tested on: SK-MEL-28
CCRF-CEM = tested on: CCRF-CEM
SNB-75 = tested on: SNB-75
NCI-H226 = tested on: NCI-H226
SF-268 = tested on: SF-268
SK-MEL-2 = tested on: SK-MEL-2
SW-620 = tested on: SW-620
IGROV-1 = tested on: IGROV-1
PC-3 = tested on: PC-3

| SMILES | GI50 (SF-539) | GI50 (MDA-MB-231) | GI50 (ACHN) | GI50 (CAKI-1) | GI50 (TK-10) | GI50 (UO-31) | GI50 (Malme-3M) | GI50 (OVCAR-5) | GI50 (A549) | GI50 (OVCAR-8) | GI50 (COLO 205) | GI50 (SK-MEL-28) | GI50 (CCRF-CEM) | GI50 (SNB-75) | GI50 (NCI-H226) | GI50 (SF-268) | GI50 (SK-MEL-2) | GI50 (SW-620) | GI50 (IGROV-1) | GI50 (PC-3) |
| --- | --- | --- | --- | --- | --- | --- | --- | --- | --- | --- | --- | --- | --- | --- | --- | --- | --- | --- | --- | --- |
| Cc1cc(S(=O)(=O)Nc2nc(N)n(-c3ccccc3)n2)c(S)cc1Cl | 86.3 µM (inactive) | > 100 µM (inactive) | > 100 µM (inactive) | > 100 µM (inactive) | > 100 µM (inactive) | > 100 µM (inactive) | > 100 µM (inactive) | > 100 µM (inactive) | > 100 µM (inactive) | > 100 µM (inactive) | > 100 µM (inactive) | > 100 µM (inactive) | > 100 µM (inactive) | > 100 µM (inactive) | > 100 µM (inactive) | > 100 µM (inactive) | > 100 µM (inactive) | > 100 µM (inactive) | > 100 µM (inactive) | > 100 µM (inactive) |
| CSc1ccc(NC(=O)C2CCCCC2C(=O)O)cc1 (stereo not given) | > 100 µM (inactive) | > 100 µM (inactive) | > 100 µM (inactive) | > 100 µM (inactive) | > 100 µM (inactive) | > 100 µM (inactive) | > 100 µM (inactive) | > 100 µM (inactive) | > 100 µM (inactive) | > 100 µM (inactive) | > 100 µM (inactive) | > 100 µM (inactive) | > 100 µM (inactive) | > 100 µM (inactive) | > 100 µM (inactive) | > 100 µM (inactive) | > 100 µM (inactive) | > 100 µM (inactive) | > 100 µM (inactive) | > 100 µM (inactive) |
| CC(=O)c1sc2c(c1OC(=O)c1ccccc1)c(=O)n(-c1ccccc1)c(=S)n2-c1ccccc1 | 2.32 µM (inactive) | 7.93 µM (inactive) | 3.03 µM (inactive) | 8.43 µM (inactive) | 24 µM (inactive) | 4.09 µM (inactive) | 2.46 µM (inactive) | 3.82 µM (inactive) | 35.3 µM (inactive) | 4.38 µM (inactive) | 13.6 µM (inactive) | 3.89 µM (inactive) | 2.51 µM (inactive) | 2.26 µM (inactive) | 2.62 µM (inactive) | 4.97 µM (inactive) | 2.79 µM (inactive) | 15.2 µM (inactive) | 23.3 µM (inactive) | 2.9 µM (inactive) |
| C=CCNC1=C2C[C@@H](C)C[C@@H](OC)C(OC(=O)CCCN(C)C)[C@H](C)/C=C(\C)[C@@H](OC(N)=O)[C@H](OC)/C=C\C=C(/C)C(=O)NC(=CC1=O)C2=O (stereo not given in full) | 6.73 µM (inactive) | 5.45 µM (inactive) | 7.48 µM (inactive) | 12.4 µM (inactive) | 11.6 µM (inactive) | 13.6 µM (inactive) | 4.16 µM (inactive) | 15.2 µM (inactive) | 3.85 µM (inactive) | 4.1 µM (inactive) | 2.82 µM (inactive) | 13.7 µM (inactive) | 8.95 µM (inactive) | 10.9 µM (inactive) | 14.6 µM (inactive) | 12.6 µM (inactive) | 12.6 µM (inactive) | 4.48 µM (inactive) | 8.95 µM (inactive) | 4.98 µM (inactive) |
| CC(C)C1CCC(=O)CC1CCCCC1CC(=O)CC1O[Si](C)(C)C(C)(C)C (stereo not given) | 4.66 µM (inactive) | 14.6 µM (inactive) | 4.3 µM (inactive) | 5.58 µM (inactive) | 10.5 µM (inactive) | 7.66 µM (inactive) | 6.76 µM (inactive) | 11.1 µM (inactive) | 6.03 µM (inactive) | 3.83 µM (inactive) | 4.21 µM (inactive) | 5.92 µM (inactive) | 0.955 µM (active) | 13.2 µM (inactive) | 3.9 µM (inactive) | 2.54 µM (inactive) | 6.44 µM (inactive) | 4.91 µM (inactive) | 2.84 µM (inactive) | 7.53 µM (inactive) |
| [BH3-][P+]1(CC[P@@+]([BH3-])(c2ccccc2)c2ccccc2OC)[C@@H](C)[C@@H](O)[C@H](O)[C@@H]1C (stereo not given in full) | 16.5 µM (inactive) | 16 µM (inactive) | 17.6 µM (inactive) | 15.6 µM (inactive) | 17.8 µM (inactive) | 10.1 µM (inactive) | 11.2 µM (inactive) | 18.1 µM (inactive) | 14.1 µM (inactive) | 17.5 µM (inactive) | 17.8 µM (inactive) | 17.9 µM (inactive) | 24.2 µM (inactive) | 14.8 µM (inactive) | 17.3 µM (inactive) | 17.2 µM (inactive) | 15.7 µM (inactive) | 16.9 µM (inactive) | 17.3 µM (inactive) | 15 µM (inactive) |
